# From US20090215713A1, “Use of atp for the manufacture of a medicament for the prevention and treatment of oxidative stress and related conditions” (priority 2004, published 2009)
# Columns and labels:
# [1] = system: mice bearing colon tumour; conditions: daily intraperitoneal injections of 25 mmol/L for 10 days; cited from earlier work
# IL-10 = experiment: LPS+PHA-induced IL-10 secretion in whole blood under oxidative stress (H2O2); format: cell-based, human
# Procedure: FIG. 11 Effect of ATP on LPS+PHA-induced IL-10 secretion in whole blood from healthy subjects under conditions of oxidative stress. Two concentrations of H2O2 (1 and 10 mM) were added to whole blood, together with the indicated concentrations of ATP. Then, blood was exposed to 10 μg/ml LPS and 1 μg/ml PHA, and incubated for 24 h. The IL-10 released into the supernatants was analyzed using the ELISA method. […] Data are expressed as the mean values; error bars represent SEM.
# Whole blood of healthy subjects was collected as described for Experiment 2, and pre-incubated with 1 or 10 mM H2O2 at 5% CO2 and 37° C. for 15 min. Then, ATP was added to the blood at final concentrations of 1-300 μM for the 30 min incubation step, and then incubated as in Experiment 2 with LPS/PHA for 24 hours.
# [2] = Randomized clinical trial of ATP in advanced non-small-cell lung cancer (prior art); format: in vivo, human; conditions: unpublished data 2005
# [3] = ATP infusions in pre-terminal cancer patients; format: in vivo, human
# Procedure: Patients with different diseases received infusions of 10-75 μg/kg·min over 8-24 h, at intervals of 1-4 weeks in different randomized clinical trials. In all cases, the first. infusion was given under clinical supervision, subsequent infusions were given in the setting of private homes. Preliminary results in small numbers of patients with persistent rheumatoid arthritis, chronic fatigue syndrome, and cancer in the pre-terminal stage, and lung cancer during curative radiotherapy are given below.
# This study was performed in patients of different tumour types with a life expectation of between 8 and 12 weeks. Patients received a maximum of 8 ATP infusions (8 h) at an infusion rate of max. 50 μg/kg·min. […] These subjective improvements were supported by objective outcome assessment using validated questionnaires for self-reliance (Groningen Activity Restriction Scale, GARS), fatigue (Short Fatigue Questionnaire, Smets et al.), and appetite (visual analogue scale, VAS). Below, some of the major effects in these five patients are summarized. Patient 1 (non-small-cell lung cancer): Despite a very low ATP dose (=20-30 μg/kg·min), this patient spontaneously reported that they felt more energetic. Before the study, the patient was not able to independently dress, undress, get in/out of bed, to get out of a chair, or to wash their hands, face or body. After 8 weeks of ATP, the patient was able to perform all of these activities independently. Over 8 weeks, their appetite improved markedly: EORTC-QLQ-30 (4-point scale): improvement from 4 to 1, and on VAS [0-100 mm], from 13 to 63 before lunch, and from 17 to 70 before dinner. The patient's treating pulmonologist concluded a “miraculous improvement” over the 8-week treatment period. On request of the patient, ATP infusions were continued. Patient 2 (primary liver carcinoma): This patient, who suffered from marked anorexia, spontaneously reported that they were “eating again like a building worker” after 8 weeks of ATP treatment. […] Furthermore, the patient felt less tired within 2 weeks of starting ATP infusions. Patient 3 (melanoma): This patient reported marked improvement in appetite. This was confirmed by outcome assessment (VAS), in addition, marked amelioration in fatigue and self reliance was found. After 8 infusion, the patient pledged to continue the ATP infusions. […] After 5 infusions, the patient decided that they felt so much better that they wanted to continue the infusions after the study. Patient 5 (pancreas cancer; study still ongoing): After 4 infusions, the patient noted to feel much more energetic.
# [4] = cited from earlier work
# TNF-α/IL-10 ratio = TNF-α/IL-10 ratio in whole blood from patients with oxidative stress-related diseases; format: cell-based, human; conditions: for reduction in the TNF-α/IL-10 ratio: 300 μM ATP
# Procedure: FIG. 15 Effect of ATP on the ratio of TNF-α/IL-10 secretion in whole blood from a patient with oxidative stress-related disease. […] In both experiments, TNF-α and IL-10 released into the supernatants was analyzed using the ELISA method. Results are expressed in percentage, 100% being the TNF-α/IL-10 ratio without ATP (control).
# FIG. 16 Effect of ATP on the ratio of TNF-α/IL-10 secretion in whole blood from a patient with oxidative stress-related disease. […] In both experiments, TNF-α and IL-10 released into the supernatants was analyzed using the ELISA method. Results are expressed in percentage, 100% being the TNF-α/IL-10 ratio without ATP (control). Both in untreated and in LPS-PHA stimulated blood, the ratio of TNF-α/IL-10 release from whole blood was reduced by the addition of ATP.
# FIG. 17 Effect of ATP on the ratio of TNF-α/IL-10 secretion in whole blood from a patient with oxidative stress-related disease. […] TNF-α and IL-10 released into the supernatants was analyzed using the ELISA method. Results are expressed in percentage, 100% being the TNF-α/IL-10 ratio without ATP (control). The ratio of TNF-α/IL-10 release from whole blood was reduced by the addition of ATP.
# This experiment was performed to test the effects of ATP ex vivo in whole blood collected from patients with oxidative stress-related diseases, both without and with LPS+PHA stimulation of cytokine production. Whole blood from 3 patients with different oxidative stress-related diseases was collected as described for experiment 2, and incubated for 24 hours at 5% CO2 and 37° C., with ATP added at a final concentration 300 μM, or no ATP (control). Cytokine production was measured as in Experiment 2. Results were expressed as the TNF-α/IL-10 ratio relative to the control condition (no ATP).
structure (smiles),measurement,setting,value
"Nc1ncnc2c1ncn2[C@@H]1O[C@H](COP(=O)(O)OP(=O)(O)OP(=O)(O)O)[C@@H](O)[C@H]1O [ATP, Adenosine 5′-triphosphate]",effect on host weight loss,[1],significant inhibition
same,increase in IL-10 release,"IL-10; 300 μM ATP, 1 or 10 mM H2O2, LPS-PHA",50-60%
same,effect on LPS+PHA-induced IL-10 release,IL-10; 1 or 10 mM H2O2,significantly increased
same,effect on blood sedimentation rate,[2],neither an effect
same,appetite VAS [0-100 mm] before dinner,"[3]; Patient 1, before",17 mm
same,appetite VAS [0-100 mm] before lunch,"[3]; Patient 1, before",13 mm
same,"appetite, EORTC-QLQ-30 (4-point scale)","[3]; Patient 1, before",4
same,appetite VAS [0-100 mm] before dinner,"[3]; Patient 1, over 8 weeks of ATP",70 mm
same,appetite VAS [0-100 mm] before lunch,"[3]; Patient 1, over 8 weeks of ATP",63 mm
same,"appetite, EORTC-QLQ-30 (4-point scale)","[3]; Patient 1, over 8 weeks of ATP",1
same,appetite VAS (0-100),"[3]; Patient 2, before",20
same,appetite VAS (0-100),"[3]; Patient 2, within 4 weeks",95
same,"fatigue, 7-point scale (mean of four items of SFQ)","[3]; Patient 4, after 4 weeks of ATP infusions",5.8
same,"fatigue, 7-point scale (mean of four items of SFQ)","[3]; Patient 4, before",2.8
same,patients spontaneously reporting marked improvements,[3]; patients who had completed >4 ATP infusions,5 out of 19
same,effect on plasma levels of pro- or anti-inflammatory cytokines,[4]; Swennen et al. 2004,neither an effect
same,loss of weight and muscle mass compared to a control group,[4]; regular infusions,inhibited
same,reduction in the TNF-α/IL-10 ratio,"TNF-α/IL-10 ratio; patient blood stimulated with LPS+PHA, depending on the patient",40-80%
same,reduction in the TNF-α/IL-10 ratio,TNF-α/IL-10 ratio; patient blood without LPS+PHA,60-80%
same,effect on ratio of TNF-α/IL-10 release,"TNF-α/IL-10 ratio; patient blood, untreated and/or LPS+PHA-stimulated",markedly reduced
